Consider 66 compounds from US20170050939A1, “SMALL MOLECULE INHIBITORS OF G PROTEIN COUPLED RECEPTOR 6 KINASE POLYPEPTIDES” (Mayo Foundation for Medical Education and Research, priority 2014, published 2017).

pIC50: −log10 of the molar value.

The first assay deals with T1, GRK6, recombinant full-length GST-tagged human protein (Homo sapiens, UniProt P43250).
T1 construct: GRK6, recombinant full-length GST-tagged human protein; GST
T1 sequence (P43250 whole entry): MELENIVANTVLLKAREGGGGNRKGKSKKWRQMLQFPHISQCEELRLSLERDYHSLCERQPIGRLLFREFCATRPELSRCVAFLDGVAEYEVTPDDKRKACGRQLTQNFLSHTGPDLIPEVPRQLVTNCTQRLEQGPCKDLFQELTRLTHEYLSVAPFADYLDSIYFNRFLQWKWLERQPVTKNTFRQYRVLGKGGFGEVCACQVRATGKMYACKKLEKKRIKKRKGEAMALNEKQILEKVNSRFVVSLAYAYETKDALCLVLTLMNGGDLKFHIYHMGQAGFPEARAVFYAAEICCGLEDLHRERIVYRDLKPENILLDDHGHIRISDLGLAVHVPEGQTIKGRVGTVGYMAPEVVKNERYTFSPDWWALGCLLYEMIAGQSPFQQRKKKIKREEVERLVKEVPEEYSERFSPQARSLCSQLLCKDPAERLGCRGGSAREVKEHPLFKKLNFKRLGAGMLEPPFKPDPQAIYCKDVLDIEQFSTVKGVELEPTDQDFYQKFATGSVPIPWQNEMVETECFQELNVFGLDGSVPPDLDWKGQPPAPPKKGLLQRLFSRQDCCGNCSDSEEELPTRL
The assay can be described thus: GRK6 IC50 determination (8-point concentration-response). Type of assay: biochemical.
Conditions: not given
An excerpt: Two hundred forty compounds were further characterized by determining IC50 values in a GRK6 assay. This screen has been previously described in WO 2013/063458, which is incorporated by reference in its entirety herein.
For orientation: pIC50 means the negative decadic logarithm of the IC50, by convention in mol/L. On to `Cn1ccc2ccc(-c3cc(-c4nnc(SCC(=O)O)[nH]4)cc([N+](=O)[O-])c3)cc21` [Compound 1], for which the pIC50 was 7.30.

In the case of `O=C(O)CSc1nnc(-c2cc(-c3ccc(-c4ccn[nH]4)cc3)cc([N+](=O)[O-])c2)[nH]1` [Compound 2], the pIC50 is 7.23.

For the compound `Cn1ccc2cc(-c3cc(-c4nnc(SCC(=O)O)[nH]4)cc([N+](=O)[O-])c3)ccc21` [Compound 3], the pIC50 is 7.22.

Consider `O=C(O)CSc1nnc(-c2cc(-c3ccc4[nH]cc(-c5ccccc5)c4c3)cc([N+](=O)[O-])c2)[nH]1` [Compound 4], for which the pIC50 is 7.17.

Regarding `O=C(O)CSc1nnc(-c2cc(-c3ccc4[nH]ccc4c3)cc([N+](=O)[O-])c2)[nH]1` [Compound 5], the negative logarithm of the IC50 (pIC50) was 7.13.

`O=C(O)CSc1nnc(-c2cc(-c3ccc4ccccc4c3)cc([N+](=O)[O-])c2)[nH]1` [Compound 6]: the pIC50 was 7.11.

With `O=C(O)CSc1nnc(-c2cc(-c3cccc(-c4cc[nH]n4)c3)cc([N+](=O)[O-])c2)[nH]1` [Compound 7], the negative-log IC50 (pIC50) was 7.03.

As for `O=C(O)CSc1nnc(-c2cc(-c3cccc4[nH]ccc34)cc([N+](=O)[O-])c2)[nH]1` [Compound 8], the pIC50 was 7.00.

On to `Cc1c(-c2ccc3c(ccn3C)c2)cc(-c2nnc(SCC(=O)O)[nH]2)cc1[N+](=O)[O-]` [Compound 9], for which the pIC50 is 6.99.

On to `O=C(O)CSc1nnc(-c2cc(-c3cccc4[nH]ncc34)cc([N+](=O)[O-])c2)[nH]1` [Compound 10], for which the pIC50 was 6.94.

With `CCn1ccc2cc(-c3cc(-c4nnc(SCC(=O)O)[nH]4)cc([N+](=O)[O-])c3)ccc21` [Compound 11], the pIC50 was 6.93.

Turning to `O=C(O)CSc1nnc(-c2cc(-c3ccc4cc[nH]c4c3)cc([N+](=O)[O-])c2)[nH]1` [Compound 12], the negative-log IC50 (pIC50) is 6.91.

For `O=C(O)CSc1nnc(-c2cc(-c3ccc4ccccc4c3)cc(-c3cnco3)c2)[nH]1` [Compound 13], the pIC50 is 6.91.

With `COc1cc(Cl)cc(-c2cc(-c3nnc(SCC(=O)O)[nH]3)cc([N+](=O)[O-])c2)c1` [Compound 14], the negative logarithm of the IC50 (pIC50) was 6.87.

Consider `O=C(O)CSc1nnc(-c2cc(-c3ccc4[nH]ncc4c3)cc([N+](=O)[O-])c2)[nH]1` [Compound 15], for which the negative logarithm of the IC50 (pIC50) is 6.85.

Take `Cn1ccc2c(-c3cc(-c4nnc(SCC(=O)O)[nH]4)cc([N+](=O)[O-])c3)cccc21` [Compound 16]: the pIC50 was 6.85.

Regarding `N#Cc1cc(-c2ccc3ccccc3c2)cc(-c2nnc(SCC(=O)O)[nH]2)c1` [Compound 17], the pIC50 is 6.77.

As for `N#CCc1cc(-c2ccc3ccccc3c2)cc(-c2nnc(SCC(=O)O)[nH]2)c1` [Compound 18], the pIC50 is 6.75.

With `O=C(O)CSc1nnc(-c2cc(-c3ccc4ncccc4c3)cc([N+](=O)[O-])c2)[nH]1` [Compound 19], the pIC50 was 6.74.

For `O=C(O)CSc1nnc(-c2cc(-c3ccc4scnc4c3)cc([N+](=O)[O-])c2)[nH]1` [Compound 20], the negative logarithm of the IC50 (pIC50) is 6.74.

For `Cn1ncc2cc(-c3cc(-c4nnc(SCC(=O)O)[nH]4)cc([N+](=O)[O-])c3)ccc21` [Compound 21], the negative logarithm of the IC50 (pIC50) was 6.74.

As to `O=C(O)CSc1nnc(-c2cc(-c3ccc(O)cc3)cc([N+](=O)[O-])c2)[nH]1` [Compound 22], the negative-log IC50 (pIC50) is 6.73.

For the compound `COc1ccc2cc(-c3cc(-c4nnc(SCC(=O)O)[nH]4)cc([N+](=O)[O-])c3)ccc2c1` [Compound 23], the pIC50 was 6.70.

Turning to `O=C(O)CSc1nnc(-c2cc(-c3cccc(O)c3)cc([N+](=O)[O-])c2)[nH]1` [Compound 24], the pIC50 is 6.67.

`CCCn1ccc2cc(-c3cc(-c4nnc(SCC(=O)O)[nH]4)cc([N+](=O)[O-])c3)ccc21` [Compound 25]: the pIC50 was 6.64.

In the case of `O=C(O)CSc1nnc(-c2cc(-c3ccc4[nH]cnc4c3)cc([N+](=O)[O-])c2)[nH]1` [Compound 26], the pIC50 is 6.60.

As to `CC(=O)Nc1ccc(-c2cc(-c3nnc(SCC(=O)O)[nH]3)cc([N+](=O)[O-])c2)cc1` [Compound 27], the negative logarithm of the IC50 (pIC50) is 6.58.

As to `O=C(O)CSc1nnc(-c2cc(-c3ccc4ccccc4c3)cc(C3C=NN=C3)c2)[nH]1` [Compound 28], the negative-log IC50 (pIC50) was 6.58.

In the case of `CN1CCOc2cc(-c3cc(-c4nnc(SCC(=O)O)[nH]4)cc([N+](=O)[O-])c3)ccc21` [Compound 29], the pIC50 is 6.57.

Take `O=C(O)CSc1nnc(-c2cc(-c3ccc4c(c3)OCO4)cc([N+](=O)[O-])c2)[nH]1` [Compound 30]: the negative-log IC50 (pIC50) was 6.56.

Turning to `O=C(O)CSc1nnc(-c2cc(-c3cccnc3)cc(-c3ccc4ccccc4c3)c2)[nH]1` [Compound 31], the pIC50 was 6.55.

In the case of `CS(=O)(=O)Nc1cccc(-c2cc(-c3nnc(SCC(=O)O)[nH]3)cc([N+](=O)[O-])c2)c1` [Compound 32], the pIC50 was 6.52.

As to `O=C(O)CSc1nnc(-c2cc(-c3ccc4[nH]c(-c5ccccc5)cc4c3)cc([N+](=O)[O-])c2)[nH]1` [Compound 33, 2-((3-(3-nitro-5-(2-phenyl-1H-indol-5-yl)phenyl)-1H-1,2,4-triazol-5-yl)thio)acetic acid], the negative-log IC50 (pIC50) is 6.52.

Regarding `Cc1cncc(-c2cc(-c3ccc4ccccc4c3)cc(-c3nnc(SCC(=O)O)[nH]3)c2)c1` [Compound 34], the pIC50 was 6.46.

For `CC(=O)Nc1cc(-c2ccc3ccccc3c2)cc(-c2nnc(SCC(=O)O)[nH]2)c1` [Compound 35], the negative logarithm of the IC50 (pIC50) was 6.45.

In the case of `COc1ccncc1-c1cc(-c2ccc3ccccc3c2)cc(-c2nnc(SCC(=O)O)[nH]2)c1` [Compound 36], the pIC50 is 6.45.

On to `O=C(O)CSc1nnc(-c2cc(-c3cccc4cnccc34)cc([N+](=O)[O-])c2)[nH]1` [Compound 37], for which the pIC50 was 6.44.

With `Cc1c(-c2cc(-c3ccc4ccccc4c3)cc(-c3nnc(SCC(=O)O)[nH]3)c2)cnn1C` [Compound 38], the pIC50 was 6.42.

For `O=C(O)CSc1nc(-c2cc(Br)cc(-c3ccc4ccccc4c3)c2)n[nH]1` [Compound 40], the pIC50 is 6.38.

For `CC(=O)Nc1cccc(-c2cc(-c3nnc(SCC(=O)O)[nH]3)cc([N+](=O)[O-])c2)c1` [Compound 42], the negative logarithm of the IC50 (pIC50) was 6.37.

Regarding `Nc1cc(-c2ccc3ccccc3c2)cc(-c2nnc(SCC(=O)O)[nH]2)c1` [Compound 43], the pIC50 is 6.36.

For the compound `Cc1ncc(-c2cc(-c3ccc4ccccc4c3)cc(-c3nnc(SCC(=O)O)[nH]3)c2)cn1` [Compound 44], the pIC50 is 6.36.

As for `CNC(=O)c1ccc(-c2cc(-c3nnc(SCC(=O)O)[nH]3)cc([N+](=O)[O-])c2)cc1` [Compound 45], the pIC50 is 6.36.

In the case of `COc1cncc(-c2cc(-c3ccc4ccccc4c3)cc(-c3nnc(SCC(=O)O)[nH]3)c2)c1` [Compound 46], the negative-log IC50 (pIC50) is 6.34.

As for `CS(=O)(=O)Nc1ccc(-c2cc(-c3nnc(SCC(=O)O)[nH]3)cc([N+](=O)[O-])c2)cc1` [Compound 47], the pIC50 was 6.33.

In the case of `Cn1c(-c2ccccc2)cc2cc(-c3cc(-c4nnc(SCC(=O)O)[nH]4)cc([N+](=O)[O-])c3)ccc21` [Compound 48], the pIC50 is 6.30.

Regarding `CNS(=O)(=O)c1cccc(-c2cc(-c3nnc(SCC(=O)O)[nH]3)cc([N+](=O)[O-])c2)c1` [Compound 49], the pIC50 is 6.29.

For the compound `O=C(O)CSc1nnc(-c2cc(-c3ccc4nccnc4c3)cc([N+](=O)[O-])c2)[nH]1` [Compound 50], the negative logarithm of the IC50 (pIC50) was 6.29.

Turning to `CN(C)c1ccc(-c2cc(-c3nnc(SCC(=O)O)[nH]3)cc([N+](=O)[O-])c2)cc1` [Compound 52], the negative logarithm of the IC50 (pIC50) was 6.29.

As to `CN(C)c1cccc(-c2cc(-c3nnc(SCC(=O)O)[nH]3)cc([N+](=O)[O-])c2)c1` [Compound 53], the pIC50 is 6.27.

In the case of `Cc1cc(-c2cc(-c3ccc4ccccc4c3)cc(-c3nnc(SCC(=O)O)[nH]3)c2)cnc1C` [Compound 54], the negative logarithm of the IC50 (pIC50) was 6.22.

`O=C(O)CSc1nnc(-c2cc(-c3cncc(F)c3)cc(-c3ccc4ccccc4c3)c2)[nH]1` [Compound 55]: the pIC50 is 6.20.

`O=C(O)CSc1nnc(-c2cc(-c3ccoc3)cc(-c3ccc4ccccc4c3)c2)[nH]1` [Compound 56]: the pIC50 is 6.16.

On to `Cc1nn(C)cc1-c1cc(-c2ccc3ccccc3c2)cc(-c2nnc(SCC(=O)O)[nH]2)c1` [Compound 57], for which the pIC50 was 6.13.

For the compound `O=C(O)CSc1nnc(-c2cc(-c3ccc4ccccc4c3)cc(-c3cnccc3F)c2)[nH]1` [Compound 58], the pIC50 was 6.12.

For `O=C(O)CSc1nnc(-c2cc(NC(=O)c3ccco3)cc(-c3ccc4ccccc4c3)c2)[nH]1` [Compound 59], the negative logarithm of the IC50 (pIC50) is 6.11.

With `CS(=O)(=O)c1cccc(-c2cc(-c3nnc(SCC(=O)O)[nH]3)cc([N+](=O)[O-])c2)c1` [Compound 60], the pIC50 was 6.11.

Turning to `CC(C)(O)c1ccc(-c2cc(-c3nnc(SCC(=O)O)[nH]3)cc([N+](=O)[O-])c2)cc1` [Compound 61], the negative-log IC50 (pIC50) was 6.10.

`CNS(=O)(=O)c1ccc(-c2cc(-c3nnc(SCC(=O)O)[nH]3)cc([N+](=O)[O-])c2)cc1` [Compound 62]: the pIC50 is 6.08.

For `Cc1ccc(-c2cc(-c3ccc4ccccc4c3)cc(-c3nnc(SCC(=O)O)[nH]3)c2)o1` [Compound 63], the pIC50 was 6.08.

With `Cc1noc(C)c1-c1cc(-c2ccc3ccccc3c2)cc(-c2nnc(SCC(=O)O)[nH]2)c1` [Compound 65], the negative-log IC50 (pIC50) was 5.99.

Regarding `COc1ccc(-c2cc(-c3ccc4ccccc4c3)cc(-c3nnc(SCC(=O)O)[nH]3)c2)cn1` [Compound 66], the negative logarithm of the IC50 (pIC50) was 5.97.

The same assay, now with this note: 20 nM GRK6, 12 μM ATP (Km), 1 μM Peptide 216, 7 h incubation.
In the case of `O=C(O)CSc1nnc(-c2cccc(-c3ccc4ccccc4c3)c2)[nH]1` [Compound 39], the pIC50 is 6.38.

`COc1cc(Cl)cc(-c2cccc(-c3nnc(SCC(=O)O)[nH]3)c2)c1` [Compound 41]: the pIC50 was 6.37.

For `COc1ccc2cc(-c3cccc(-c4nnc(SCC(=O)O)[nH]4)c3)ccc2c1` [Compound 51], the pIC50 is 6.29.

Turning to `N#Cc1cccc(-c2cccc(-c3nnc(SCC(=O)O)[nH]3)c2)c1` [Compound 64], the pIC50 was 6.04.
